# Results as given in patent publication US20250049777A1, “PHARMACEUTICALLY ACCEPTABLE SALT AND CRYSTALLINE FORM OF GLP-1 RECEPTOR AGONIST AND PREPARATION METHOD THEREFOR” (JIANGSU HENGRUI PHARMACEUTICALS CO., LTD., priority 2021, published 2025).
# Where a name gives a salt, the structure may show the parent alone. Read-outs that look alike come from different tables or passages of the source.
# Legend:
# [1] = type: physicochemical; conditions: for Crystal form: sealed aluminum foil bag
# Description: A salt-type sample was sealed with an aluminum foil bag and placed under the conditions of 25° C./60% RH and 40° C./75% RH, respectively, to investigate the stability.
# [2] = Hygroscopicity of crystal forms of salts (DVS, 25° C.); type: physicochemical
# Text: According to the description of hygroscopic characteristics and the definition of hygroscopic weight gain in “9103 Guidelines for Hygroscopicity of Pharmaceuticals”, Chinese Pharmacopoeia, Volume IV, 2015 edition, the following are defined: • deliquescent: absorbing enough water to form a liquid; • extremely hygroscopic: having a hygroscopic weight gain of not less than 15%; • hygroscopic: having a hygroscopic weight gain of less than 15% and not less than 2%; • slightly hygroscopic: having a hygroscopic weight gain of less than 2% and not less than 0.2%; and • no or almost no hygroscopicity: having a hygroscopic weight gain of less than 0.2%.
# Surface Measurement Systems intrinsic DVS was used at 25° C. The observed humidity ranged from 0% to 95%. The step was 10%. The criterion was that the mass change dM/dT for each step was less than 0.002%. TMAX was 360 min. Two cycles were carried out.
# [3] = Stability of crystal forms of salts under influencing factors (illumination, high temperature, high humidity); type: physicochemical
# Text: The sampling and investigation period was 30 days.
# [4] = Illumination (4500 Lux), 5 days, open
# [5] = Illumination (4500 Lux), 10 days, open
# [6] = Illumination (4500 Lux), 30 days, open
smiles,measurement,setting,value
"O=C(O)c1ccc2nc(CN3CCC(c4cccc5c4O[C@@H](c4ccc(Cl)cc4F)CO5)CC3)n(C[C@@H]3CCO3)c2c1 [Crystal form I of tartrate salt, 2-((4-((S)-3-(4-chloro-2-fluorophenyl)-2,3-dihydrobenzo[b][1,4]dioxan-5-yl)piperidin-1-yl)methyl)-1-(((S)-oxetan-2-yl)methyl)-1H-benzo[d]imidazole-6-carboxylic acid]",physical and chemical stability,[1],good physical and chemical stability
same,Crystal form,[1]; 25° C./60% RH,Unchanged
same,Crystal form,[1]; 40° C./75% RH,Unchanged
same,% Purity,[1]; Initial condition,98.8%
same,hygroscopic weight gain 0.0% RH to 80.0% RH,[2],1.44%
same,Crystal form after DVS,[2]; 0% to 95% RH,Unchanged
same,% Purity,"[3]; 40° C., 5 days, open",98.4%
same,Crystal form,"[3]; 40° C., 5 days, open",Unchanged
same,% Purity,"[3]; 40° C., 10 days, open",98.1%
same,Crystal form,"[3]; 40° C., 10 days, open",Unchanged
same,% Purity,"[3]; 40° C., 30 days, open",97.6%
same,Crystal form,"[3]; 40° C., 30 days, open",Unchanged
same,% Purity,"[3]; 60° C., 5 days, open",97.9%
same,Crystal form,"[3]; 60° C., 5 days, open",Unchanged
same,% Purity,"[3]; 60° C., 10 days, open",97.2%
same,Crystal form,"[3]; 60° C., 10 days, open",Unchanged
same,% Purity,"[3]; 60° C., 30 days, open",96.4%
same,Crystal form,"[3]; 60° C., 30 days, open",Unchanged
same,% Purity,"[3]; 75% RH, 5 days, open",98.6%
same,Crystal form,"[3]; 75% RH, 5 days, open",Unchanged
same,% Purity,"[3]; 75% RH, 10 days, open",98.6%
same,Crystal form,"[3]; 75% RH, 10 days, open",Unchanged
same,% Purity,"[3]; 75% RH, 30 days, open",98.4%
same,Crystal form,"[3]; 75% RH, 30 days, open",Unchanged
same,% Purity,"[3]; 92.5% RH, 5 days, open",98.7%
same,Crystal form,"[3]; 92.5% RH, 5 days, open",Unchanged
same,% Purity,"[3]; 92.5% RH, 10 days, open",98.6%
same,Crystal form,"[3]; 92.5% RH, 10 days, open",Unchanged
same,% Purity,"[3]; 92.5% RH, 30 days, open",98.3%
same,Crystal form,"[3]; 92.5% RH, 30 days, open",Unchanged
same,% Purity,[3]; [4],98.7%
same,Crystal form,[3]; [4],Unchanged
same,% Purity,[3]; [5],98.6%
same,Crystal form,[3]; [5],Unchanged
same,% Purity,[3]; [6],98.3%
same,Crystal form,[3]; [6],Unchanged
same,% Purity,"[3]; Initial condition, 0 days",98.8%
